Test results as given in US8618043B2, “Use of ADNF polypeptides for treating anxiety and depression” (Ramot at Tel-Aviv University, priority 2003, dated 2013).

Columns and labels:
Bovine MAP-rich tubulin = experiment: Microtubule assembly, absorbance at 350 nm; type: biochemical; details: negative control peptide, concentration not given
Experimental: A microtubule assembly kit CytoDYNAMIX Screen 01(CDS01) was obtained from Cytoskeleton (Denver, Colo.). Bovine MAP-rich tubulin (HTS01) was resuspended in G-PEM buffer (80 mM PIPES pH 6.9, 1 mM MgCl, 1 mM EGTA and 1 mM GTP) and subjected to polymerization at 37° C. The reaction was performed in 96-well plate. Assembly was monitored with a spectrophotometer SPECTRAmax 190 (Molecular Devices, Sunnyvale, Calif.) employing continuous recording at 350 nm.

[1] = system: astrocytes from newborn rat cerebral cortex; experiment: Confocal microscopy of microtubule re-organization; type: cell-based
Experimental: Rat cerebral cortical cells from newborn pups were prepared as before (Bassan et al., 1999). All procedures performed in these studies were conducted in accordance with the Tel Aviv University regulations and were approved by the Animal Care and Use Committee of Tel Aviv University. The use of animals was not excessive and no animal suffering occurred. In short, cerebral cortical tissue was incubated for 20 minutes at 37° C. in Hanks' balanced salt solution+15 mM HEPES, pH 7.3 containing trypsin B (Biological Industries, Beit Haemek, Israel). Dissociated cerebral cortical cells were added to the culture dish with 5% horse serum in DMEM. Cells were plated in a ratio of 1 cortex per two 75 cm^2 cell culture flasks (polystyrene, Corning, N.Y.). The medium was changed 1 day after plating. For astrocyte cultures, cells were split after 10 incubation days and plated in 24 well plates (each flask into 60 wells containing microscope cover glasses (12 mm diameter) and 250 μl medium). Cells were then incubated two additional weeks. For mixed neuroglial cultures, dissociated cerebral cortical cells were plated on a bed of astrocytes 2 weeks after the split and incubated in neuron-specific medium as before (Bassan et al., 1999; Brenneman, & Gozes, J. Clin. Invest. 97:2299-2307 (1996); based on Forsythe & Westbrook, J. Physiol. 396:515-533 (1988)). […]

[2] = cited from earlier work
ND-Swiss male mice = experiment: Morris water maze, chronic intranasal NAP; type: in vivo, mouse; details: eight-month-old mice
Experimental: ND-Swiss male mice (8 months old; Harlan Sprague Dawley, Inc., Indianapolis, Ind.) were kept under a 12:12 hour light/dark regimen, with food and water available at all times. The mice were kept in the animal care facility of the Tel Aviv University in compliance with institutional and state guidelines.
NAP was custom synthesized by Peninsula (Bachem, Torrance, Calif., USA) or Peptide Technologies (Bethesda, Md., USA). The peptide was dissolved in a solution DD, in which each milliliter included 7.5 mg NaCl, 1.7 mg citric acid monohydrate, 3 mg disodium phosphate dihydrate and 0.2 mg benzalkonium chloride solution (50%). The peptide was administered intranasally every day, 5 days a week, 0.5 μg in 10 μl for each mouse, half the portion in each nostril. The control group received 10 μl of the inert carrier per day. The mice were treated at least 1 h prior to the daily experiment (water maze).
Mice were also subjected to two daily tests in a Morris water maze (diameter 90 cm; depth, 20 cm), as described in WO 01/092333, incorporated herein by reference. Latency to reach the hidden platform over a 90 second test period was recorded. The experiment was performed for 4-5 consecutive days. […] The platform was then removed from the maze and the time spent by the mice in the pool's quarter where the platform used to be was recorded (for 90 seconds). […]

[3] = in vivo; cited from earlier work

Molecule | effect on microtubule assembly (Bovine MAP-rich tubulin) | microtubule re-organization / microtubule-associated morphological change [1] | brain penetration ([2]; following intranasal administration) | crossing of the blood-brain barrier ([2]; radiolabeled peptides, intranasal, intravenous or intraperitoneal administration) | time to reach the visible platform (motor behavior) (ND-Swiss male mice) | adverse side effects in toxicology studies [3]
VLGGGSALL [C2] | did not affect | did not induce | – | – | – | –
CC[C@H](C)[C@H](NC(=O)[C@H](CO)NC(=O)[C@@H](NC(=O)[C@@H]1CCCN1C(=O)[C@H](C)NC(=O)[C@@H](N)CC(N)=O)C(C)C)C(=O)N1CCC[C@H]1C(=O)N[C@@H](CCC(N)=O)C(=O)O [NAP] | – | – | brain penetration | can cross the blood-brain barrier | 24+7.6 | no adverse side effects
